In patent US20160089352A1, “CELL MEMBRANE TRANSPORT PROMOTER FOR SELECTIVE 5-HT1A SEROTONIN RECEPTORS” (NISHIZAKI BIOINFORMATION RESEARCH INSTITUTE, priority 2013, published 2016):

What was measured:
[1] = tested on: 5-HT1A serotonin receptor; assay: Analysis of 5-HT receptor trafficking in rat hippocampus and hypothalamus sections (Western blotting of cellular membrane and cytoplasm fractions); format: cell-based; conditions: DCP-LA 100 nM
[2] = tested on: mouse under a restraint stress; assay: Forced swimming test after restraint stress (depression model); format: in vivo; conditions: restraint-stressed mouse, 0.5, 0.75, 1.0, 5.0 mg/kg orally once per day, total 11 days; FIG. 3
Source text: At present, in the study of depression using the behavior of an experiment animal, the efficacy of antidepressant and reaction to stress, which are the both sides of depression, are mainly utilized. In a depression model, a method for inducing depression in an animal by imposing a stress such as solitude, electric shock, forced immersion in water, peripheral environment, temperature change and the like is mainly used. In this Experimental Example, a restraint stress animal model was used. A symptom corresponding to depression was induced by loading a stress by enclosing an experiment animal in a narrow space inhibiting movement, and whether an antidepressive effect was observed when a test compound was administered was examined. Male C57BL/6J mouse at 8-week-old was purchased from Japan SLC Inc. (Shizuoka. Japan). The mouse was enclosed in a 11.5 cm plastic cylinder (diameter 2.7 cm) for 3 hr per day, which was performed for 4 consecutive days to impart a stress.
A forced swimming test is a behavioral test used for screening for an antidepressive effect of a compound. Also in this Experimental Example, a forced swimming test was performed according to a previous report after a restraint stress (Porsolt R D. Le Pichon M, Jalfre M. Depression: a new animal model sensitive, to antidepressant treatments. Nature 1977; 266:730-732.). […]

[3] = tested on: 5-HT1A serotonin receptor; assay: 5-HT1A serotonin receptor on cellular membrane in hippocampus and hypothalamus of restraint-stressed mouse after forced swimming test (Western blotting); format: in vivo; conditions: 1 mg/kg orally once per day, total 11 days, hippocampus, hypothalamus, FIG. 4
[4] = tested on: GSK-3β; assay: Phosphorylation of GSK-3β at Ser9 in hypothalamus of mouse under or not under restraint stress (Western blotting); format: in vivo; conditions: total 11 days, FIG. 6

## CCCCCC1CC1CC1CC1CCCCCCCC(=O)O (stereo not drawn) [DCP-LA, 8-[2-(2-Pentyl-cyclopropylmethyl)-cyclopropyl]-octanoic acid]
[1]; 20 min, rat hippocampus and hypothalamus sections, compared with 5-HT2A serotonin receptor, FIG. 1
  expression of 5-HT1A serotonin receptor on the cellular membrane (ratio of cellular membrane to whole cells): selectively increased
[1]; rat hypothalamus section, GF109203X 100 nM, BoTX-A 0.1 U/ml, KN-93 3 μM, FIG. 2
  promoting action on cellular membrane trafficking of 5-HT1A serotonin receptor in the presence of inhibitors: significantly suppressed by BoTX and KN
[2]
  immobility time in forced swimming test: immobility time decreasing effect in a dose-dependent manner
[3]
  stress-induced decrease in 5-HT1A serotonin receptor on the cellular membrane: recovered
[4]; irrespective of the presence or absence of a restraint stress, mouse hypothalamus, 1 mg/kg orally
  phosphorylation of GSK-3β (Ser9): promote phosphorylation
[4]; mouse under restraint stress, hypothalamus, 1 mg/kg orally once per day
  stress-induced suppression of phosphorylation of GSK-3β (Ser9): improves suppression of the phosphorylation
